Measured values reported in publication PMC11650737, “Developing MYC Degraders Bearing the Von Hippel–Lindau Ligand to Target the “Undruggable” MYC” (ACS Pharmacology & Translational Science, 2024).
“And” between values parts separate entries of the source, which are not always exact repeats. Equal entries are not always repeated.

Tests used:
[1] = test system: A549 cells; test: Cell viability (MTT) assay, A549; assay type: cell-based, human; conditions: 72 h
Method: The antiproliferative activity of the synthesized compounds was tested in cell viability assays optimally set up for various cancer cell lines (results are depicted in Table 2, n = 3, average IC50 (μM) ± SD).
Cells were plated at a density of 5 × 10^3 cells per well on 96-well plates. After 24 h of incubation (37 °C, 5% CO2), the cell medium was removed, and compounds were added at selected concentrations (0.1–100 μM), followed by incubation for 72 h. Control cells were treated with 0.4% DMSO medium to match the conditions in the wells where drugs were added. After 72 h, the medium was removed, and the 3-(4,5-dimethylthiazol-2-yl)-2,5-diphenyltetrazolium bromide (MTT) solution (0.3 mg/mL in PBS) was added to cells for 3 h under no light conditions. The MTT solution was removed, and the formazan crystals were dissolved in 100 μL of DMSO. The optical density was measured at 570 nm with a reference wavelength of 690 nm using an absorbance microplate reader (SpectraMax 190, Molecular Devices, Sunnyvale, CA, USA). The half-maximal inhibitory concentration (IC50) was calculated based on a four-parameter logistic equation, generating a cell viability curve, using GraphPad Prism 6.01 (GraphPad Software, Inc.). […] The resulting absorbance values were used instead of IC50 calculation. […]

[2] = test system: A549 cells; test: Cell uptake / intracellular concentration by LC-MS/MS, A549; assay type: in vitro ADME, human; conditions: A549, 24 h incubation with 10 μM
Method: (§1) Therefore, in order to better comprehend the observed activities of our degraders, following incubation of each compound with cells, the intracellular concentrations of the synthesized derivatives were evaluated in different cancer cell lines, as described previously.[28],[29] SKBR3, PC3, or A549 cells were incubated with PROTACs (at a 10 μΜ concentration) for selected time points, respectively. Upon sample treatment, compounds were extracted and analyzed by LC-MS/MS. Table 1 presents the percentage of the molecule that enters the cells after 24 h incubation at the 10 μM concentration. […] The small molecule MYCi361, used as a binding domain component of MYC, was also evaluated in the cell uptake assay (Table 1).
Cells were plated in 24-well plates at a density of 2 × 10^5 cells/well. 24 h after seeding, cells were incubated with each PROTAC (10 μΜ) for certain time points (1 h, 4 h, 8 h, and 24 h). […] Samples were then reconstituted in 200 μL of initial mobile phase (100% A), and the intracellular accumulation of PROTACs was determined by LC-MS/MS analysis using Warfarin as a stable internal standard and PROTAC standards for the construction of analytical standard curves.
(§2) The percentage of cell uptake was calculated as follows: [drawing 1]

[3] = test system: PC3 cells; test: Cell uptake / intracellular concentration by LC-MS/MS, PC3; assay type: in vitro ADME, human; conditions: PC3, 24 h incubation with 10 μM
Method: as §1
(§3) Cells were plated in 24-well plates at a density of 2 × 10^5 cells/well. 24 h after seeding, cells were incubated with each PROTAC (10 μΜ) for certain time points (1 h, 4 h, 8 h, and 24 h). The incubations were terminated at the selected time points by removing the medium and washing the cells twice with 1 mL cold PBS (1×) in each well in order to remove unbound PROTAC. Subsequently, the cells were lysed by adding a cold solution of ACN:H2O (3:2) and scraping off the cell monolayer. This process was done in two steps: first, 200 μL of ACN:H2O was added, the cells were scraped, and the cell lysate was collected. The second step involved the addition of an extra 100 μL of ACN:H2O, scraping, and collection of the remaining lysate. Samples were subsequently vortexed, sonicated, and centrifuged for 10 min at 13 000 rpm. The supernatants were collected, evaporated for 1 h at 55 °C, and stored at −20 °C until the day of analysis. Samples were then reconstituted in 200 μL of initial mobile phase (100% A), and the intracellular accumulation of PROTACs was determined by LC-MS/MS analysis using Warfarin as a stable internal standard and PROTAC standards for the construction of analytical standard curves.
as §2

[4] = test system: SKBR3 cells; test: Cell uptake / intracellular concentration by LC-MS/MS, SKBR3; assay type: in vitro ADME, human; conditions: SKBR3, 24 h incubation with 10 μM
Method: as §1, §3, §2

[5] = Stability of PROTACs in cell medium (DMEM), LC-MS/MS; assay type: physicochemical; conditions: 72 h at 37 °C, 5 μM in DMEM (10% FBS)
Method: The stability of selected molecules, such as CSI86, was studied in cell medium over a time frame of 72 h at 37 °C.
The stability of most compounds, including CSI86 PROTAC, was evaluated in DMEM. The drug was prepared at a concentration of 5 μM in DMEM (10% FBS, 1% pen/strep) and aliquoted at approximately 200 μL per Eppendorf. The samples were collected at appropriate time points (0, 1 h, 2 h, 4 h, 8 h, 24 h, 48 h, and 72 h) and stored at −80 °C. On the day of the LC-MS/MS analysis, samples were prepared (50 μL drug in DMEM + 50 μL ACN:H2O + 50 μL IS + 100 μL cold ACN), vortexed, sonicated, and centrifuged at 13 000 rpm for 15 min. Then, samples were transferred into glass tubes, diluted in the initial mobile phase (20% Α – 80% Β), centrifuged for 1 min, and added to a 96-well plate for the LC-MS/MS analysis.

Row | SMILES | IC50 (antiproliferative effect) [1] | Uptake by cells [2] | Uptake by cells [3] | Uptake by cells [4] | intracellular concentration ([4]; corresponding to the uptake) | stability in cell medium (DMEM) [5]
1 | Cc1ncsc1-c1ccc(CNC(=O)[C@@H]2C[C@@H](O)CN2C(=O)[C@@H](NC(=O)CCC(=O)NCCCOc2ccc(-c3cc(C(F)(F)F)nn3C)c(O)c2-c2cc(C(F)(F)F)cc(C(F)(F)F)c2)C(C)(C)C)cc1 [CSI86] | inactive | 10% and 10 ± 2% | 19% and 19 ± 4% | 26% and 26 ± 5% | 2.6 µM | stable
2 | Cc1ncsc1-c1ccc(CNC(=O)[C@@H]2C[C@@H](O)CN2C(=O)[C@@H](NC(=O)CCCC(=O)NCCCOc2ccc(-c3cc(C(F)(F)F)nn3C)c(O)c2-c2cc(C(F)(F)F)cc(C(F)(F)F)c2)C(C)(C)C)cc1 [CSI107] | – | – | 13% and 13 ± 3% | – | – | –
